From patent publication US9555038B2, “Heterocycle-substituted tetracyclic compounds and methods of use thereof for the treatment of viral diseases” (Merck Sharp & Dohme Corp., priority 2013, dated 2017)
Where two headings read alike, the source gives them in different places.

Experiments:
HCV replicon 1A = experiment: Cell-based HCV Replicon Assay A, replicon 1A
Outline: (§1)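 2000 cells/well; 10 serial dilutions, top concentration 333.3 nM to 1.667 nM; 0.5% DMSO, 5% FBS; 3 days; lysis; multiplex TaqMan RT-PCR (NS5B/Neo plus cyclophilin), RNA from linear Ct standard curves.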

HCV replicon 1AY93H = experiment: Cell-based HCV Replicon Assay A, replicon 1AY93H
Outline: as §1

HCV replicon 2B = experiment: Cell-based HCV Replicon Assay A, replicon 2B
Outline: as §1

HCV replicon 1B = experiment: Cell-based HCV Replicon Assay B, replicon 1B
Description: In an alternate assay (“Replicon Assay B”), 1000 cells were seeded per well in a 384-well collagen coated black plate from Greiner bio-one (Cat #781946) in 5% FBS. Inhibitors of this invention were added at 24 h post-seeding, and the plates were incubated for 3 days. Cells were subsequently lysed with Qiagen lysis buffer (Cat #1062731) to extract the RNA. HCV replicon RNA level was measured by real-time PCR using the RNA-to-CT kit from Applied Biosystem (Cat #4392656) and genotype-specific primers and probes. The amplicon was located within NS5B. The sequence of the PCR primers are as follows: 5B.2F, ATGGACAGGCGCCCTGA (SEQ. ID NO. 1); 5B.2R, […] (SEQ. ID NO. 2); the probe sequence was FAM-labeled CACGCCATGCGCTGCGG (SEQ. ID NO. 3). To detect genotype 1A the primer 1A F, TGCGGAACCGGTGAGTACA and 1A R, […] were used; the probe sequence was FAM-[…].
The real-time RT-PCR reactions were run on ABI PRISM 7900HT or Viia7 Sequence Detection System using the following program: 48° C. for 30 minutes, 95° C. for 10 minutes, 40 cycles of 95° C. for 15 sec, 60° C. for 1 minutes. The 50% effective concentration (EC50) was the drug concentration necessary to achieve an increase in the cycle threshold (CT) of 1 over the projected baseline CT.
Data was obtained for various compounds of the present invention using the methods described in the Example above, and is presented in the table immediately below. Data for replicons 1A, 1AY93H and 2B were obtained using Replicon Assay A and data for replicons 1AQ30D and 1B were obtained using Replicon Assay B.

[1] = read-out: 1A Y93H IC50, replicon 1AY93H
[2] = Hepatitis C virus, read-out: 1A Y93H IC50 (nM), replicon 1AY93H
[3] = Hepatitis C virus, read-out: 2B IC50 (nM), replicon 2B
[4] = replicon 1AY93H, read-out: 1A Y93H IC50

## COC(=O)N[C@H](C(=O)N1CCC[C@H]1c1ncc(-c2cc(F)c3c(c2)OC(c2cnc(C4CCOCC4)s2)n2c-3cc3cc(-c4cnc([C@@H]5CCCN5C(=O)[C@@H](NC(=O)OC)C(C)C)[nH]4)ccc32)[nH]1)C(C)C (single isomer, unassigned) [Compound 532]
HCV replicon 1A
  IC50: 1.3 pM
HCV replicon 1AY93H; [1]
  IC50: 1.76 nM
HCV replicon 2B; read-out: 2B IC50, replicon 2B
  IC50: 1.18 nM
HCV replicon 1B
  IC50: 3.6 pM

## COC(=O)N[C@H](C(=O)N1CCC[C@H]1c1ncc(-c2cc(F)c3c(c2)OC(c2cnc(-c4ccc(OC)cc4)s2)n2c-3cc3cc(-c4cnc([C@@H]5CCCN5C(=O)[C@@H](NC(=O)OC)C(C)C)[nH]4)ccc32)[nH]1)C(C)C (single isomer, unassigned) [Compound 46]
HCV replicon 1A
  IC50: 1.8 pM
HCV replicon 1AY93H; [1]
  IC50: 0.534 nM
HCV replicon 2B; read-out: 2B IC50, replicon 2B
  IC50: 0.252 nM
HCV replicon 1B
  IC50: 1 pM

## COC(=O)N[C@H](C(=O)N1CCC[C@H]1c1ncc(-c2cc(F)c3c(c2)OC(c2cnc(C4CC4)s2)n2c-3cc3cc(-c4cnc([C@@H]5CC6(C)CC6N5C(=O)[C@@H](NC(=O)OC)C(C)C)[nH]4)ccc32)[nH]1)C(C)C (stereo partly drawn) [Compound 517]
HCV replicon 1A; Hepatitis C virus
  IC50: 1.7 pM
HCV replicon 1AY93H; [2]
  IC50: 0.392 nM
HCV replicon 2B; [3]
  IC50: 0.874 nM
HCV replicon 1B; Hepatitis C virus
  IC50: 3.3 pM

## COC(=O)N[C@H](C(=O)N1CCC[C@H]1c1ncc(-c2cc(F)c3c(c2)OC(c2cc(C)ns2)n2c-3cc3cc(-c4cnc([C@@H]5CCCN5C(=O)[C@@H](NC(=O)OC)C(C)C)[nH]4)ccc32)[nH]1)C(C)C (single isomer, unassigned) [Compound 502]
HCV replicon 1A; Hepatitis C virus
  IC50: 1.6 pM
HCV replicon 2B; [3]
  IC50: 2.31 nM
HCV replicon 1B; Hepatitis C virus
  IC50: 2.5 pM

## CCCc1ncc(C2Oc3cc(-c4cnc([C@@H]5CCCN5C(=O)[C@@H](NC(=O)OC)C(C)C)[nH]4)cc(F)c3-c3cc4cc(-c5cnc([C@@H]6CCCN6C(=O)[C@@H](NC(=O)OC)C(C)C)[nH]5)ccc4n32)s1 (stereo partly drawn) [Compound 16]
HCV replicon 1A
  IC50: 1.7 pM
HCV replicon 1AY93H; [1]
  IC50: 0.083 nM
HCV replicon 2B; read-out: 2B IC50, replicon 2B
  IC50: 0.284 nM
HCV replicon 1B
  IC50: 1 pM

## COC(=O)NC(C(=O)N1CCC[C@H]1c1ncc(-c2ccc3c(c2)cc2n3C(c3sc(C(C)C)nc3C)Oc3cc(-c4cnc([C@@H]5CCCN5C(=O)[C@@H](NC(=O)OC)C(C)C)[nH]4)cc(F)c3-2)[nH]1)C1CCOC(C)(C)C1 (single isomer, unassigned) [Compound 434]
HCV replicon 1A; Hepatitis C virus
  IC50: 2.3 pM
HCV replicon 1AY93H; [2]
  IC50: 0.729 nM
HCV replicon 2B; [3]
  IC50: 0.293 nM
HCV replicon 1B; Hepatitis C virus
  IC50: 3.5 pM

## COC(=O)NC(C(=O)N1CCC[C@H]1c1ncc(-c2ccc3c(c2)cc2n3C(c3cnc(C4(C)CC4)s3)Oc3cc(-c4cnc([C@@H]5CCCN5C(=O)[C@@H](NC(=O)OC)C(C)C)[nH]4)cc(F)c3-2)[nH]1)C1CCOC(C)(C)C1 (single isomer, unassigned) [Compound 459]
HCV replicon 1A
  IC50: 2.3 pM
HCV replicon 1AY93H; [1]
  IC50: 0.296 nM
HCV replicon 2B; read-out: 2B IC50, replicon 2B
  IC50: 0.083 nM
HCV replicon 1B
  IC50: 3 pM

## COC(=O)NC(C(=O)N1[C@@H]2C[C@@H]2C[C@H]1c1ncc(-c2ccc3c(c2)cc2n3C(c3cnc(C4(C)CCCC4)s3)Oc3cc(-c4cnc([C@@H]5CCCN5C(=O)[C@@H](NC(=O)OC)C(C)C)[nH]4)cc(F)c3-2)[nH]1)C1CCOC(C)(C)C1 (single isomer, unassigned) [Compound 476]
HCV replicon 1A
  IC50: 1.1 pM
HCV replicon 1AY93H; [1]
  IC50: 0.316 nM
HCV replicon 2B; read-out: 2B IC50, replicon 2B
  IC50: 0.19 nM
HCV replicon 1B
  IC50: 3.5 pM

## COC(=O)N[C@H](C(=O)N1CCC[C@H]1c1ncc(-c2cc(F)c3c(c2)OC(c2cnc(C4(C)CCCC4)s2)n2c-3cc3cc(-c4cnc([C@@H]5C[C@H]6C[C@H]6N5C(=O)[C@@H](NC(=O)OC)C(C)C)[nH]4)ccc32)[nH]1)C(C)C (single isomer, unassigned) [Compound 455]
HCV replicon 1A
  IC50: 1.7 pM
HCV replicon 1AY93H; [1]
  IC50: 0.981 nM
HCV replicon 1B
  IC50: 3.4 pM

## CCCc1ncc(C2Oc3cc(-c4cnc([C@@H]5CCCN5C(=O)[C@@H](NC(=O)OC)C(C)C)[nH]4)cc(F)c3-c3cc4cc(-c5cnc([C@@H]6CCCN6C(=O)C(NC(=O)OC)C6CCOC(C)(C)C6)[nH]5)ccc4n32)s1 (single isomer, unassigned) [Compound 60]
HCV replicon 1A
  IC50: 4 pM
HCV replicon 1AY93H; [1]
  IC50: 0.4 nM
HCV replicon 2B; read-out: 2B IC50, replicon 2B
  IC50: 0.184 nM
HCV replicon 1B
  IC50: 4 pM

## COC(=O)N[C@H](C(=O)N1CCC[C@H]1c1ncc(-c2cc(F)c3c(c2)OC(c2cnc(C4CC4)s2)n2c-3c(C)c3cc(-c4cnc([C@@H]5CCCN5C(=O)[C@@H](NC(=O)OC)C(C)C)[nH]4)ccc32)[nH]1)C(C)C (single isomer, unassigned) [Compound 495]
HCV replicon 1A
  IC50: 1.6 pM
HCV replicon 1AY93H; [4]
  IC50: 0.27 nM
HCV replicon 2B; replicon 2B, read-out: 2B IC50
  IC50: 0.184 nM
HCV replicon 1B
  IC50: 2.5 pM

## COC(=O)NC(C(=O)N1CCC[C@H]1c1ncc(-c2ccc3c(c2)cc2n3C(c3cnc(C(C)(C)C)s3)Oc3cc(-c4cnc([C@@H]5CCCN5C(=O)[C@@H](NC(=O)OC)C(C)C)[nH]4)cc(F)c3-2)[nH]1)C1CCOC(C)(C)C1 (single isomer, unassigned) [Compound 315]
HCV replicon 1A
  IC50: 2.7 pM
HCV replicon 1AY93H; [1]
  IC50: 0.0028 nM
HCV replicon 2B; read-out: 2B IC50, replicon 2B
  IC50: 0.004 nM
HCV replicon 1B; Hepatitis C virus
  IC50: 2 pM

## COC(=O)NC(C(=O)N1[C@@H]2C[C@@H]2C[C@H]1c1ncc(-c2ccc3c(c2)cc2n3C(c3cnc(C4(C)CCCC4)s3)Oc3cc(-c4cnc([C@@H]5CCCN5C(=O)[C@@H](NC(=O)OC)C(C)C)[nH]4)cc(F)c3-2)[nH]1)C1C[C@@H](C)O[C@@H](C)C1 (single isomer, unassigned) [Compound 474]
HCV replicon 1A
  IC50: 1.5 pM
HCV replicon 1AY93H; [1]
  IC50: 0.269 nM
HCV replicon 2B; read-out: 2B IC50, replicon 2B
  IC50: 0.263 nM
HCV replicon 1B
  IC50: 3.6 pM

## COC(=O)N[C@H](C(=O)N1CCC[C@H]1c1ncc(-c2cc(F)c3c(c2)OC(c2cnc(-c4ccc(F)cc4F)s2)n2c-3cc3cc(-c4cnc([C@@H]5CCCN5C(=O)[C@@H](NC(=O)OC)C(C)C)[nH]4)ccc32)[nH]1)C(C)C (single isomer, unassigned) [Compound 98]
HCV replicon 1A; Hepatitis C virus
  IC50: 2.7 pM
HCV replicon 1AY93H; [1]
  IC50: 0.01 nM
HCV replicon 2B; read-out: 2B IC50, replicon 2B
  IC50: 0.003 nM
HCV replicon 1B; Hepatitis C virus
  IC50: 1.2 pM

## COC(=O)NC(C(=O)N1CCC[C@H]1c1ncc(-c2ccc3c(c2)cc2n3C(c3cnc(C4(C)CC4)s3)Oc3cc(-c4cnc([C@@H]5CCCN5C(=O)[C@@H](NC(=O)OC)C(C)C)[nH]4)cc(F)c3-2)[nH]1)C1C[C@@H](C)O[C@@H](C)C1 (single isomer, unassigned) [Compound 461]
HCV replicon 1A; Hepatitis C virus
  IC50: 2.2 pM
HCV replicon 1AY93H; [1]
  IC50: 0.32 nM
HCV replicon 2B; read-out: 2B IC50, replicon 2B
  IC50: 0.132 nM
HCV replicon 1B; Hepatitis C virus
  IC50: 3.8 pM

## COC(=O)NC(C(=O)N1CCC[C@H]1c1ncc(-c2ccc3c(c2)cc2n3C(c3cnc(C4(C)CCCC4)s3)Oc3cc(-c4cnc([C@@H]5CCCN5C(=O)[C@@H](NC(=O)OC)C(C)C)[nH]4)cc(F)c3-2)[nH]1)C1C[C@@H](C)O[C@@H](C)C1 (single isomer, unassigned) [Compound 470]
HCV replicon 1A
  IC50: 2.6 pM
HCV replicon 1AY93H; [1]
  IC50: 0.514 nM
HCV replicon 2B; read-out: 2B IC50, replicon 2B
  IC50: 0.106 nM
HCV replicon 1B
  IC50: 3.5 pM

## COC(=O)N[C@H](C(=O)N1CCC[C@H]1c1ncc(-c2cc(F)c3c(c2)OC(c2nc4c(s2)CCC4)n2c-3cc3cc(-c4cnc([C@@H]5CCCN5C(=O)[C@@H](NC(=O)OC)C(C)C)[nH]4)ccc32)[nH]1)C(C)C (single isomer, unassigned) [Compound 504]
HCV replicon 1A; Hepatitis C virus
  IC50: 2.6 pM
HCV replicon 1AY93H; [1]
  IC50: 1.67 nM
HCV replicon 2B; read-out: 2B IC50, replicon 2B
  IC50: 1.67 nM
HCV replicon 1B; Hepatitis C virus
  IC50: 2.4 pM

## COC(=O)NC(C(=O)N1CCC[C@H]1c1ncc(-c2ccc3c(c2)cc2n3C(c3nc4c(s3)CCC4)Oc3cc(-c4cnc([C@@H]5CCCN5C(=O)[C@@H](NC(=O)OC)C(C)C)[nH]4)cc(F)c3-2)[nH]1)C1CCOC(C)(C)C1 (single isomer, unassigned) [Compound 536]
HCV replicon 1A
  IC50: 2.3 pM
HCV replicon 2B; replicon 2B, read-out: 2B IC50
  IC50: 0.029 nM
HCV replicon 1B
  IC50: 2.7 pM

## COC(=O)N[C@H](C(=O)N1CCC[C@H]1c1ncc(-c2cc(F)c3c(c2)OC(c2sc(C(C)C)nc2C)n2c-3cc3cc(-c4cnc([C@@H]5CCCN5C(=O)[C@@H](NC(=O)OC)C(C)C)[nH]4)ccc32)[nH]1)C(C)C (single isomer, unassigned) [Compound 516]
HCV replicon 1A
  IC50: 1.7 pM
HCV replicon 1AY93H; [1]
  IC50: 3.22 nM
HCV replicon 1B
  IC50: 2.6 pM

## COC(=O)N[C@H](C(=O)N1CCC[C@H]1c1ncc(-c2cc(F)c3c(c2)OC(c2sc(C4CC4)nc2C2CC2)n2c-3cc3cc(-c4cnc([C@@H]5CCCN5C(=O)[C@@H](NC(=O)OC)C(C)C)[nH]4)ccc32)[nH]1)C(C)C (single isomer, unassigned) [Compound 526]
HCV replicon 1A
  IC50: 2.4 pM
HCV replicon 2B; [3]
  IC50: 0.537 nM
HCV replicon 1B
  IC50: 1.1 pM

## COC(=O)N[C@H](C(=O)N1CCC[C@H]1c1ncc(-c2cc(F)c3c(c2)OC(c2cnc(C4CC4)s2)n2c-3cc3cc(-c4cnc([C@@H]5CC6(C)CC6N5C(=O)[C@@H](NC(=O)OC)C(C)C)[nH]4)ccc32)[nH]1)C(C)C (single isomer, unassigned) [Compound 520]
HCV replicon 1A
  IC50: 3.3 pM
HCV replicon 1AY93H; [4]
  IC50: 2.71 nM
HCV replicon 1B
  IC50: 3.7 pM
